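Compound exposure: 48 hours, 5 concentrations, 96-well plates. The concentration for full growth arrest is given as TGI.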
Key:
Assay in all cases: NCI anticancer screen, dose series, 48 h
SNB-78 CNS = system: SNB-78 CNS
K-562 leukemia = system: K-562 leukemia
A498 renal = system: A498 renal
SNB-19 CNS = system: SNB-19 CNS
HCT-116 colon = system: HCT-116 colon
NCI-H226 lung = system: NCI-H226 lung
SK-MEL-2 melanoma = system: SK-MEL-2 melanoma
HCC-2998 colon = system: HCC-2998 colon
SF-539 CNS = system: SF-539 CNS
DLD-1 colon = system: DLD-1 colon
SNB-75 CNS = system: SNB-75 CNS
OVCAR-4 ovarian = system: OVCAR-4 ovarian
MALME-3M melanoma = system: MALME-3M melanoma
M19-MEL melanoma = system: M19-MEL melanoma
NCI-H522 lung = system: NCI-H522 lung
TK-10 renal = system: TK-10 renal
HOP-62 NSCLC = system: HOP-62 NSCLC
KM20L2 colon = system: KM20L2 colon
SK-MEL-5 melanoma = system: SK-MEL-5 melanoma
M14 melanoma = system: M14 melanoma
SW-620 colon = system: SW-620 colon
OVCAR-5 ovarian = system: OVCAR-5 ovarian
SF-295 CNS = system: SF-295 CNS
HL-60(TB) leukemia = system: HL-60(TB) leukemia
HOP-18 NSCLC = system: HOP-18 NSCLC
U251 CNS = system: U251 CNS
SK-MEL-28 melanoma = system: SK-MEL-28 melanoma
NCI-H23 lung = system: NCI-H23 lung
CCRF-CEM leukemia = system: CCRF-CEM leukemia
SF-268 CNS = system: SF-268 CNS
ACHN renal = system: ACHN renal
OVCAR-3 ovarian = system: OVCAR-3 ovarian
SR leukemia = system: SR leukemia
HOP-92 NSCLC = system: HOP-92 NSCLC
DMS 273 small cell lung = system: DMS 273 small cell lung
RPMI-8226 leukemia = system: RPMI-8226 leukemia
EKVX NSCLC = system: EKVX NSCLC
MOLT-4 leukemia = system: MOLT-4 leukemia
IGROV1 ovarian = system: IGROV1 ovarian
786-0 renal = system: 786-0 renal
HT29 colon = system: HT29 colon
HCT-15 colon = system: HCT-15 colon
CAKI-1 renal = system: CAKI-1 renal
LXFL 529 NSCLC = system: LXFL 529 NSCLC
A549 NSCLC = system: A549 NSCLC
SK-OV-3 ovarian = system: SK-OV-3 ovarian
OVCAR-8 ovarian = system: OVCAR-8 ovarian
LOX IMVI melanoma = system: LOX IMVI melanoma
RXF 393 renal = system: RXF 393 renal
UO-31 renal = system: UO-31 renal
UACC-257 melanoma = system: UACC-257 melanoma
NCI-H460 lung = system: NCI-H460 lung
UACC-62 melanoma = system: UACC-62 melanoma
SN12C renal = system: SN12C renal
COLO 205 colon = system: COLO 205 colon
DMS 114 small cell lung = system: DMS 114 small cell lung
XF 498 CNS = system: XF 498 CNS
KM12 colon = system: KM12 colon

Measured: TGI

O=C1CCCCC1S(=O)(=O)c1ccccc1 (stereo not drawn)
> 100 µM: SNB-78 CNS | K-562 leukemia | A498 renal | SNB-19 CNS | HCT-116 colon | NCI-H226 lung | SK-MEL-2 melanoma | HCC-2998 colon | SF-539 CNS | DLD-1 colon | SNB-75 CNS | OVCAR-4 ovarian | MALME-3M melanoma | M19-MEL melanoma | NCI-H522 lung | TK-10 renal | HOP-62 NSCLC | KM20L2 colon | SK-MEL-5 melanoma | M14 melanoma | SW-620 colon | OVCAR-5 ovarian | SF-295 CNS | HL-60(TB) leukemia | HOP-18 NSCLC | U251 CNS | SK-MEL-28 melanoma | NCI-H23 lung | CCRF-CEM leukemia | SF-268 CNS | ACHN renal | OVCAR-3 ovarian | SR leukemia | HOP-92 NSCLC | DMS 273 small cell lung | RPMI-8226 leukemia | EKVX NSCLC | MOLT-4 leukemia | IGROV1 ovarian | 786-0 renal | HT29 colon | HCT-15 colon | CAKI-1 renal | LXFL 529 NSCLC | A549 NSCLC | SK-OV-3 ovarian | OVCAR-8 ovarian | LOX IMVI melanoma | RXF 393 renal | UO-31 renal | UACC-257 melanoma | NCI-H460 lung | UACC-62 melanoma | SN12C renal | COLO 205 colon | DMS 114 small cell lung | XF 498 CNS | KM12 colon

Reference: PubChem BioAssay (NCI)
